Experimental data published in patent US20030113665A1, “Optical data medium containing, in the information layer, a dye as a light-absorbing compound” (priority 2001, published 2003).
Read-outs that look alike come from different tables or passages of the source.

Key:
[1] = UV absorption spectra in solution; assay type: physicochemical; settings: for λmax: in dioxane (Tables 1-3); for λ1/2-λ1/10: on the shortwave slope (Tables 1-3); for UV (dioxane): λmax: in dioxane; for UV (DMF): λmax: in DMF
Excerpt: For a, preferably singly recordable, optical data carrier according to the invention which is written and read by light from a blue laser such merocyanine dyes are preferred whose absorption maximum λmax2 is in the range from 420 bis 550 nm, wherein the wavelength λ½ at which the extinction on the shortwave slope of the absorption maximum of the wavelength λmax2 is half the extinction value at λmax2 and the wavelength λ 1/10 at which the extinction on the shortwave slope of the absorption maximum of the wavelength λmax2 is a tenth of the extinction value at λmax2, are preferably in each case no further than 50 nm away from each other.
The absorption spectra are measured for example in solution.
Suitable merocyanines having the required spectral properties are in particular those in which the change in dipole moment Δμ=|μg-μag|, i.e. the positive difference between the dipole moments in the ground state and in the first excited state, is as small as possible, preferably <5 D, and particularly preferably <2 D. One method of determining such a change in dipole moment Δμ is described for example in F. Würthner et al., Angew. Chem. 1997, 109, 2933 and in the literature cited therein. Low solvatochromism (dioxane/DMF) is also a suitable criterion for selection. Merocyanines are preferred whose solvatochromism Δλ=|λDMF-λdioxane|, i.e. the positive difference between the absorption wavelengths in the solvents dimethylformamide and dioxane is <20 nm, particularly preferably <10 nm and very particularly preferably <5 nm.

[2] = Solubility in coating solvent; assay type: physicochemical; settings: in TFP (2,2,3,3-tetrafluoropropanol)
[3] = UV absorption spectra in solution; assay type: physicochemical
[4] = Recording/readout test of optical disc with vapour-deposited phthalocyanine information layer
Excerpt: Directly on top of the grooved surface the information layer of 40 nm was coated by vacuum vapor deposition method. […] Total thickness of the adhesive layer and the cover layer was set as 100 μm.
The parameters of readout/recording setup was as follows.
Numerical aperture of the objective lens=0.85, two element lens
Readout laser power=0.30 mW
Writing laser power=6.0 mW
Pulse strategy=7 pulses with 50% duty inside one mark
The dye dichloro-silicon-phthalocyanine (SiCl2Pc) was applied for the information layer.

[5] = = |λDMF − λdioxane| (Tables 1-3)
[6] = molar extinction coefficient at absorption maximum

In the case of `CN1/C(=C\C=C(\C#N)c2nc3ccccc3s2)C(C)(C)c2ccccc21` [Example 76], the λmax [1] is reported as 462 nm and the λ1/2-λ1/10 [1] is reported as 34^3) nm.
With `C=C1N(CCCCN2C(=C)C(C)(C)c3ccccc32)c2ccccc2C1(C)C` [Example 77] the λmax [1] was 500 nm.
With `CCCCCCCCCCCCN1C(=O)/C(=C/c2ccc(N(C)C)o2)C(=O)N(C)C1=O` [Example 27] the “UV (dioxane): λmax” value [1] was 483 nm and the “λ½-λ1/10 (shortwave slope)” value [1] was 32 nm.
With `CCCCN1C(=O)C(C#N)=C(C)/C(=C\C=C2/N(C)c3ccccc3C2(C)C)C1=O` [Example 24] the Solubility [2] was > 2%, the “UV (DMF): λmax” value [1] was 522 nm and the “UV (dioxane): λmax” value [1] was 520 nm. For the same molecule, the “λ½-λ1/10 (longwave slope)” value [3] was 12 nm.
`Cc1cnc(N(C)C)s1` [Example 28] showed a Δλ [1, 5] of 16 nm, a ε ([1]; Tables 1-3) of 40990 L/mol/cm and a λmax [1] of 470 nm. For the same molecule, the λ1/2-λ1/10 [1] was 32^3) nm.
Work on `C=C1N(C)c2ccccc2C1(C)C` [Example 56] yielded a Δλ [1, 5] of 5 nm, a ε ([1]; Tables 1-3) of 46470 L/mol/cm and a λmax [1] of 499 nm. For the same molecule, the λ1/2-λ1/10 [1] was 36^3) nm.
For `C=C1N(C)c2ccc(C)cc2C1(C)C` [Example 63], the Δλ [1, 5] was 6 nm, the ε ([1]; Tables 1-3) was 41530 L/mol/cm and the λmax [1] was 503 nm. The λ1/2-λ1/10 [1] was 36^3) nm.
In the case of `CCCN1C(=O)C(C#N)=C(C)/C(=C\C=C\N(C)c2ccc(OC)cc2)C1=O` [Example 25], the Solubility [2] is reported as > 2%, the “UV (DMF): λmax” value [1] is reported as 477 nm and the “UV (dioxane): λmax” value [1] is reported as 482 nm. For the same molecule, the ε [1, 6] was 73013 L/mol/cm, the “λ½-λ1/10 (shortwave slope)” value [1] was 33 nm and the Δλ ([1]; solvatochromism |λDMF-λdioxane|) was 5 nm.
In the case of “dichloro-silicon-phthalocyanine [Example 2]”, the readout stability ([4]; SiO2 buffer layer and PSA layer, 100 μm cover) is reported as “very high”.
For `CC1=C([n+]2ccccc2)C(=O)NC(=O)/C1=C/C=C1\N(C)c2ccccc2C1(C)C` [Example 26], the “UV (methanol): λmax” value ([1]; in methanol) was 513 nm, the ε [1, 6] was 86510 L/mol/cm and the “λ½-λ1/10 (shortwave slope)” value [1] was 38 nm.
In the case of `[Cl][Al]1[n]2c3c4ccccc4c2/N=C2N=C(/N=c4/c5ccccc5/c([n]41)=N/C1=NC(=N\3)/c3ccccc31)c1ccccc1\2` [Example 1, monochloro-aluminium-phthalocyanine], the readout stability [4] is reported as “surprisingly good”.
